Values after ≈ are worked out from the molar mass of the structure shown.
Experiments:
enterocyte (NCM-460) = test: Cytotoxicity, MTT assay; format: cell-based; conditions: Homo sapiens, NCM460, 24 h, 37 °C, 800 to 1.6 μg/mL, 50% cell viability
Procedure: (§1) Cytotoxicity assay. Cytotoxicity tests were performed on NIH 3T3 fibroblast cells, endothelial cells (HUVEC), macrophage (RAW264.7), liver cells (LO2), kidney cells (COS7) and enterocyte (NCM-460) using MTT assay. Cells were cultured in DMEM supplemented with 10% FBS, 5% penicillin, 2 mM L-glutamine and incubated at 37 °C in 5% CO 2. Cells were harvested and seeded onto 96-well plates at a density of 1.0 × 10^4 cells per well and incubated for 24 h. On each plate, wells containing growth medium only and cells in growth medium without any antifungal agent were used as the negative and positive control, […]
(§2) concentrations ranging from 800 to 1.6 μg/mL. Medium in each cell-containing well was replaced with 100 μL of the corresponding polymer solution, and the plates were incubated at 37 °C for 24 h. Then, the solution in each well was switched to 100 µL MTT solution (1 mg/mL) and the plate was incubated in the dark at 37 °C for 4 h. After centrifuge (to prevent the possible loss of formazan crystals) and removal of the supernatant, 100 μL DMSO was added to each well to dissolve the formed formazan under stirred for 20 min. Then 85 µL of the supernatant from each well was transferred to the corresponding well in a new plate, followed by absorbance measurement at 570 nm on a plate reader. Each antifungal agent was tested in triplicate in each assay, and the experiment was conducted at least twice on a different day. The percentage of cell viability in each test well, relative to the positive control (which defines 100%) w as calculated from [% fibroblast growth = (A polymer – Ablank)/(Acontrol – A blank) × 100]. The IC 50 value is the minimum concentration to inhibit 50% of fibroblast cell growth. All measurements were performed with three replicates.

kidney cells (COS7) = test: Cytotoxicity, MTT assay; format: cell-based; conditions: Chlorocebus aethiops, COS-7, 24 h, 37 °C, 800 to 1.6 μg/mL, 50% cell viability
Procedure: as §1, §2

liver cells (LO2) = test: Cytotoxicity, MTT assay; format: cell-based; conditions: 24 h, 37 °C, 800 to 1.6 μg/mL, 50% cell viability
Procedure: as §1, §2

A. Baumannii ATCC 747 = test: Antibacterial MIC test; format: cell-based; conditions: 1.0 × 10^5 CFU/mL in MH medium
Text: (§3) aforementioned antifungal assay. Gram-positive bacteria ( S. aureus ATCC 6538, S.

B. subtilis BR151 = test: Antibacterial MIC test; format: cell-based; conditions: 1.0 × 10^5 CFU/mL in MH medium
Text: as §3

E. coli ATCC 25922 = test: Antibacterial MIC test; format: cell-based; conditions: 1.0 × 10^5 CFU/mL in MH medium
Text: as §3

[1] = system: K. pneumoniae ATCC 700603; test: Antibacterial MIC test; format: cell-based; conditions: 1.0 × 10^5 CFU/mL in MH medium
Text: as §3

S. aureus ATCC 6538 = test: Antibacterial MIC test; format: cell-based; conditions: 1.0 × 10^5 CFU/mL in MH medium
Text: as §3

[2] = system: S. epidermidis ATCC 49134; test: Antibacterial MIC test; format: cell-based; conditions: 1.0 × 10^5 CFU/mL in MH medium
Text: as §3

C. albicans (K1 strain) = test: Intracellular ROS detection (DCFH fluorescence); format: cell-based, Candida albicans; conditions: DCF fluorescence, positive control 40 mM H2O2; rises with time and PDAP20 concentration
Procedure: Energy depletion analysis. For energy depletion experiments, cell suspension of C. albicans (K1 strain) at 3.0 × 10^6 CFU/mL was pretreated with RPMI containing 5 mM NaN 3 for 1 h. For antifungal efficiency assay, a fresh cell suspension pretreated or non-pretreated with NaN 3 were incubated with 50 μg/mL PDAP 20 or without an antifungal agent (as energy depletion control) for 24 h. The fresh cell suspension without antifungal agents before and after incubation with NaN 3 for 24 h were used as the controls, respectively. The suspensions were diluted and plated on YPD agar. The plates were incubated at 30 °C for 24 h and colony amounts were counted. The cell viability after incubation at 4 °C with 50 μg/mL PDAP 20 or without an antifungal agent (as positive control) was measured using the same method. […]
For flow cytometry experiment, a fresh cell suspension pretreated or non-pretreated with NaN 3 was incubated with 50 μg/mL CPM-PDAP 20 for 1 h and 2 h, respectively. Fungal cells were washed by PBS to remove polymers, and 5.0 × 10^4 cells were counted and anaysized. The polymer uptake was calculated by flow cytometry (Backman). Furthermore, cell suspensions were incubated with 10 μg/mL PI for 10 min for calculated PI uptake. […]
DNA fragmentation assay. Apoptosis induced DNA fragments in C. albicans cells were analyzed using the TdT-mediated dUTP Nick-End Labeling (TUNEL) method. […]

| Compound | IC50 (enterocyte (NCM-460)) | IC50 (kidney cells (COS7)) | IC50 (liver cells (LO2)) | MIC A. baumannii (A. Baumannii ATCC 747) | MIC B. subtilis (B. subtilis BR151) | MIC E. coli (E. coli ATCC 25922) | MIC K. pneumoniae [1] | MIC S. aureus (S. aureus ATCC 6538) | MIC S. epidermidis [2] | Intracellular ROS level (C. albicans (K1 strain)) |
| --- | --- | --- | --- | --- | --- | --- | --- | --- | --- | --- |
| C[C@@H]1[C@H](O)[C@@H](C)/C=C/C=C/C=C/C=C/C=C/C=C/C=C/[C@H](O[C@@H]2O[C@H](C)[C@@H](O)[C@H](N)[C@@H]2O)C[C@@H]2O[C@](O)(C[C@@H](O)C[C@@H](O)[C@H](O)CC[C@@H](O)C[C@@H](O)CC(=O)O[C@H]1C)C[C@H](O)[C@H]2C(=O)O [AmpB, amphotericin B] | 40 µg/mL (≈ 43.3 µM) | 25 µg/mL (≈ 27.1 µM) | 77 µg/mL (≈ 83.3 µM) |  |  |  |  |  |  |  |
| poly(DL‐diaminopropionic acid) [PDAP20] |  |  |  | > 200 µg/mL | 50 µg/mL | 200 µg/mL | > 200 µg/mL | > 200 µg/mL | 200 µg/mL | higher than that of the hydrogen peroxide‐treated fungal cells |
